Two compounds from patent US8685455B2, “Oil-in-water emulsions containing lignan-class compounds and compositions containing the same” (Suntory Holdings Limited, priority 2005, dated 2014) can be followed below.

SMILES strings stand for the structures.

A short description of the data set: Solubilities of sesamin, episesamin and their mixture in various oils or fats. Type of data set: physicochemical. The method, then:
To prepare the lignan-class compound containing emulsion of the present invention, liquid in which a lignan-class compound is dissolved (oil phase) is first prepared. As already mentioned, a sesame oil or the like may be used as the liquid, alternatively, the liquid may be prepared by adding a powdered form of lignan-class compound to a solvent oil or fat, mixing the mixture, and fully dissolving the powdered form to the solvent while agitating the mixture while heating. The blending ratio between the lignan-class compound and the fat or oil varies with the type of the lignan-class compound and the fat, or oil that serves as a solvent and it can be set appropriately in consideration of this fact. The assignees of the subject application have discovered that two lignan-class compounds, sesamin and episesamin, and a mixture thereof had different solubilities in different fats or oils (see Table 1).

As for `c1cc2c(cc1[C@H]1OC[C@H]3[C@@H]1CO[C@@H]3c1ccc3c(c1)OCO3)OCO2` [Episesamin, episesamin], the “Solubilities (%) in DG” value stood at 1.0%, the “Solubilities (%) in MCT-1” value came to 2.5%, the “Solubilities (%) in MCT-2” value is 2.5% and the “Solubilities (%) in Olive oil” value worked out at 0.5%. Further, the “Solubilities (%) in Wheat germ oil” value is on record as 0.75%.
As to `c1cc2c(cc1[C@H]1OC[C@H]3[C@@H]1CO[C@@H]3c1ccc3c(c1)OCO3)OCO2` [Sesamin, sesamin], the “Solubilities (%) in DG” value came out at 1.25%, the “Solubilities (%) in MCT-1” value came to 4.0%, the “Solubilities (%) in MCT-2” value was 2.0% and the “Solubilities (%) in Olive oil” value worked out at 0.75%. Further, the “Solubilities (%) in Wheat germ oil” value is 0.75%.
